One compound from patent EP1897937A1, “Method of culturing NPCs” (NeuroProgen GmbH Leipzig, priority 2006, dated 2008) can be followed below.

Read-outs that look alike come from different tables or passages of the source.

In assay [1] the test system is hmNPCs. The assay can be described thus: Western blot of proliferation marker PCNA and survival marker Bcl-2. The assay is classed as cell-based, human. The settings on record: 2 weeks. The protocol: (§1) To determine long-term proliferation, hmNPCs were plated and expanded for 2 passages with or without addition of various agents (see below) to the custom expansion media containing the growth factors EGF and FGF2. Different fetal midbrain tissues were included in this study. At the end of the proliferation period, differentiation of hmNPCs was induced via replacement of expansion media with mitogen-free media containing 1% FCS, 5 µM forskoline (Sigma-Aldrich Chemie GmbH Munich, Germany), and 100 pg/ml IL-1β (Sigma). The differentiation and expansion media were supplemented with different drugs as appropriate. Prior to immunocytochemistry or protein extraction, hmNPCs were allowed to differentiate for 1 week. To determine short-term proliferation via Ki67 immunostaining, the cells were seeded into 24-well plates (70,000 cells/well) and left overnight to rest. P2 receptor agonists (ATP, UTP, ATP + UTP, ADP, ADPβS) were supplied daily for 5 consecutive days. Ki67/nestin double-positive cells were counted in 8 randomly selected fields of nucleotide-treated or untreated samples. For the assessment of MAPK phosphorylation the cells were kept free of mitogens for 2 d prior to addition of the MEK-inhibitor in expansion media. In addition, the MEK-inhibitor was added during the differentiation period 15 min before UTP administration.
In order to prepare protein extracts, hmNPCs were collected, washed with ice-cold PBS and lysed in buffer [10 mM HEPES-KOH (pH 7.9), 10 mM KCI, 1.5 mM MgCl2, 0.1% NP-40], supplemented with protease inhibitor cocktail (Roche). After a brief centrifugation at 4°C/10 000×g, protein concentrations and protein yield from extracts were determined using the Bradford method (Bio-Rad, Hercules, CA, USA). To preserve the phosphorylation state of proteins, extracts for the MAPK experiment were obtained using the PhosphoSafe™ extraction reagent containing phophatase inhibitors (Novagen). […] The chemiluminescence was quantified using the AIDA, two-dimensional densitometry software (Raytest lsotopenmeb, Straubenhardt, Germany). […]
On the technique in general: A western blot detects proteins with antibodies after separation by electrophoresis.

Assay [2] concerns hmNPCs. Description: Dopaminergic differentiation: counting of TH-positive cells by immunocytochemistry. The assay is classed as cell-based, human. The protocol: as §1
UTP, UDP, ATP, ADP, ADPβS and suramin were purchased from Sigma (Sigma-Aldrich Chemie GmbH Munich, Germany). UTP and UDP were applied at different concentrations (1 µM, 10 µM, 100 µM), ATP at 100 µM, ADP at 100 µM, and ADPβS at100 µM. During expansion of the cells, the nucleotides were renewed once a week with every media change, unless otherwise stated. They were applied once at the beginning of the differentiation period. The P2 receptor antagonist suramin (10 µM) was added to expansion media 30 min prior to addition of UTP (100 µM). The stock solution of the MEK1/2 inhibitor U0126 (Promega Corporation, Mannheim, Germany) was prepared in dimethyl sulfoxide (DMSO) at a concentration of 10 mM. The stock solution was then diluted in 0.1 M PBS to obtain a concentration of 1 mM. MEK inhibitor (final concentration 10 µM) was added to mitogen-free expansion media, 15 min before UTP treatment (1 µM) of hmNPCs.
Expanded or one week differentiated hmNPCs were fixed with 4% paraformaldehyde in PBS for 10 min at room temperature and washed with PBS, counterstained with the DNA-binding dye 4'-6-Diamidino-2-phenylindole (DAPI, 2 µg/ml in PBS) for 15 min at room temperature, washed twice in PBS followed by incubation in blocking buffer (10% FCS, 0.2% Triton-X 100 in PBS, pH 7.2) for 30 min at room temperature. After incubation with a primary antibody (over night at 4°C in blocking buffer), the cells were incubated with fluorescent secondary antibodies, Alexa Fluor® 488 conjugate or Alexa Fluor® 594 conjugate (Molecular Probes, Eugene, USA). Cover-slips were mounted onto glass slides and examined under a fluorescence microscope (Zeiss Axiovert 200). Acquisition of the cells was performed using the Image-analysis software AxioVision 4 (Carl Zeiss AG, Jena, Germany). The following primary antibodies were used for immunofluorescence: rabbit polyclonal anti-β-tubulin III (anti-Tuj1) antibody, rabbit polyclonal anti-tyrosine hydroxylase antibody , mouse monoclonal anti-nestin antibody (Pharmingen, San Diego, CA, USA), rabbit polyclonal anti-Ki67 antigen antibody (Novocastra Laboratories Ltd, Newcastle upon Tyne, UK). Estimation of the TH-positive cell numbers was performed by counting of cells among approximately 1000 differentiated cells in total within 6 randomly selected fields.

In the case of `O=c1ccn([C@@H]2O[C@H](COP(=O)(O)OP(=O)(O)OP(=O)(O)O)[C@@H](O)[C@H]2O)c(=O)[nH]1` [UTP, uridine 5'-triphosphate], the activity at 1 µM in the assay with hmNPCs [1] (Homo sapiens, 336 h, 1 µM, read-out: expression of the proliferation marker PCNA compared to control cells) was determined as 330 ± 23%; in the assay on hmNPCs [2] (Homo sapiens, 1 µM, 2 weeks of expansion and one week of differentiation, read-out: number of TH-positive cells), 211 ± 30%. In addition, in the assay with hmNPCs [1] (increasing UTP concentrations), the “expression of the survival marker Bcl-2” value is given as “did not significantly change”. In addition, the “contribution of TH-immunopositive cells to the total of Tuj1-immunopositive cells” value in the assay on hmNPCs [2] (100 µM, 2 weeks of expansion followed by 1 week of differentiation) is “increased”. In addition, the activity at 100 µM with hmNPCs [2] (Homo sapiens, 168 h, 100 µM each, once, only during the differentiation period of one week, read-out: number of TH-positive (dopaminergic) cells as compared to control) was found to be 239 ± 27%; in the assay on hmNPCs [2] (Homo sapiens, 100 µM during proliferation and differentiation, read-out: number of TH-positive cells), 267 ± 20%.
